Drawing on patent US20240360146A1, “BRUTON'S TYROSINE KINASE AND MUTANT DEGRADER, COMPOSITION AND APPLICATION THEREOF” (HANGZHOU HEALZEN THERAPEUTICS CO., LTD., priority 2021, published 2024), this text covers DC50 for 20 compounds.

This assay has as its target T1, BTK (Homo sapiens, UniProt Q06187).
T1 construct: endogenous in cells; host or cells: Mino cells
Briefly: BTK degradation activity test in Mino cells. The assay is classed as cell-based. As to conditions: 16 h incubation, Western blot or Elisa. Summed up: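 Mino cells treated with a concentration series of compound for 16 h, then lysed; total protein by BCA. BTK quantified by Western blot or ELISA, degradation rate calculated against blank control, and DC50 fitted from the degradation curve.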
In general terms: A western blot detects proteins with antibodies after separation by electrophoresis.

T1 sequence (Q06187 whole entry): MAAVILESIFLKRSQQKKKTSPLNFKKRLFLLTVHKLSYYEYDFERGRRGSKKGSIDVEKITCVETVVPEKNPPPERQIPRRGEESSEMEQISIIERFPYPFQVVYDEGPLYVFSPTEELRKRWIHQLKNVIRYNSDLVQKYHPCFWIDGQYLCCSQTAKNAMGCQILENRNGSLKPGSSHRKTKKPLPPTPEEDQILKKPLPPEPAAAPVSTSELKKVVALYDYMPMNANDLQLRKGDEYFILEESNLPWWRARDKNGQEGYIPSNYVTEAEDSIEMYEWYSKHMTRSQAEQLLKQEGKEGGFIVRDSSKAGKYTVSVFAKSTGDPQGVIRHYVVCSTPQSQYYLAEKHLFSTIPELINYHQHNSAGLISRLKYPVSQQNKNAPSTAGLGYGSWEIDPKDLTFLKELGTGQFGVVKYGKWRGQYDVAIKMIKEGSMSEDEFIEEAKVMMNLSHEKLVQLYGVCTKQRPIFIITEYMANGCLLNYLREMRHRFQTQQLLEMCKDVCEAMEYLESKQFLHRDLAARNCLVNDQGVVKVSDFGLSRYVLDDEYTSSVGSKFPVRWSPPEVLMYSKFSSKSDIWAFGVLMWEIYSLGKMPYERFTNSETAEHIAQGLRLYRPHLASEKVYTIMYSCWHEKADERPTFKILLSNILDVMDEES

Compound `CN1CCN(C2CCCN(c3nnc(C(N)=O)c(Nc4ccc(C5CCN(CC6CCN(c7ccc8c(c7)n(C)c(=O)n8C7CCC(=O)NC7=O)CC6)CC5)cc4)n3)C2)C1=O` (centres unmarked) [Compound 088, 5-((4-(1-((1-(1-(2,6-dioxopiperidin-3-yl)-3-methyl-2-oxo-2,3-dihydro-1H-benzo[d]imidazol-5-yl)piperidin-4-yl)methyl)piperidin-4-yl)phenyl)amino)-3-(3-(3-methyl-2-oxoimidazolin-1-yl)piperidin-1-yl)-1,2,4-triazin-6-carboxamide] gave a DC50 of less than 1 nM.

For `NC(=O)c1nnc(N2CCCC(N3CCN(c4ccccc4)C3=O)C2)nc1Nc1ccc(C2CCN(CC3CCN(c4ccc5c(c4)C(=O)N(C4CCC(=O)NC4=O)C5=O)C3)CC2)cc1` (centres unmarked) [Compound 089, 5-((4-(1-((1-(2-(2,6-dioxopiperidin-3-yl)-1,3-dioxoisoindol-5-yl)pyrrolidin-3-yl)methyl)piperidin-4-yl)phenyl)amino)-3-(3-(2-oxo-3-phenylimidazolin-1-yl)piperidin-1-yl)-1,2,4-triazin-6-carboxamide], the DC50 was less than 1 nM.

With `NC(=O)c1nnc(N2CCCC(N3CCN(c4ccccc4)C3=O)C2)nc1Nc1ccc(C2CCN(C3CN(c4ccc5c(c4)C(=O)N(C4CCC(=O)NC4=O)C5=O)C3)CC2)cc1` (centres unmarked) [Compound 090, 5-((4-(1-(1-(2-(2,6-dioxopiperidin-3-yl)-1,3-dioxoisoindol-5-yl)azetidin-3-yl)piperidin-4-yl)phenyl)amino)-3-(3-(2-oxo-3-phenylimidazolin-1-yl)piperidin-1-yl)-1,2,4-triazin-6-carboxamide], the DC50 was less than 1 nM.

`CC1(c2ccc(Nc3nc(N4CCCC(N5CCN(c6ccccc6)C5=O)C4)nnc3C(N)=O)cc2)CCN(C2CCN(c3ccc4c(c3)C(=O)N(C3CCC(=O)NC3=O)C4=O)CC2)CC1` (centres unmarked) [Compound 091, 5-((4-(1′-(2-(2,6-dioxopiperidin-3-yl)-1,3-dioxoisoindol-5-yl)-4-methyl-[1,4′-bipiperidin]-4-yl)phenyl)amino)-3-(3-(2-oxo-3-phenylimidazolin-1-yl)piperidin-1-yl)-1,2,4-triazin-6-carboxamide] came in with a DC50 greater than 1 nM.

In turn, `CC1(c2ccc(Nc3nc(N4CCCC(N5CCN(c6ccccc6)C5=O)C4)nnc3C(N)=O)cc2)CCN(C2CN(c3ccc4c(c3)C(=O)N(C3CCC(=O)NC3=O)C4=O)C2)CC1` (centres unmarked) [Compound 092, 5-((4-(1-(1-(2-(2,6-dioxopiperidin-3-yl)-1,3-dioxoisoindol-5-yl)azetidine-3-yl)-4-methylpiperidin-4-yl)phenyl)amino)-3-(3-(2-oxo-3-phenylimidazolin-1-yl)piperidin-1-yl)-1,2,4-triazin-6-carboxamide] came in with a DC50 greater than 1 nM.

`NC(=O)c1nnc(N2CCCC(N3CCN(c4ccccc4)C3=O)C2)nc1Nc1ccc2c(c1)CCN(C1CN(c3ccc4c(c3)C(=O)N(C3CCC(=O)NC3=O)C4=O)C1)C2` (centres unmarked) [Compound 093] showed a DC50 greater than 1 nM.

`NC(=O)c1nnc(N2CCCC(N3CCN(c4ccccc4)C3=O)C2)nc1Nc1ccc2c(c1)CCN(CC1CCN(c3ccc4c(c3)C(=O)N(C3CCC(=O)NC3=O)C4=O)CC1)C2` (centres unmarked) [Compound 094, 5-((2-((1-(2-(2,6-dioxopiperidin-3-yl)-1,3-dioxoisoindol-5-yl)piperidin-4-yl)methyl)-1,2,3,4-tetrahydroisoquinolin-6-yl)amino)-3-(3-(2-oxo-3-phenylimidazolin-1-yl)piperidin-1-yl)-1,2,4-triazin-6-carboxamide]: the DC50 was less than 1 nM.

As to `NC(=O)c1nnc(N2CCCC(N3CCN(c4ccccc4)C3=O)C2)nc1Nc1ccc(N2CCN(CC3CCN(c4ccc5c(c4)C(=O)N(C4CCC(=O)NC4=O)C5=O)CC3)CC2)cc1` (centres unmarked) [Compound 095, 5-((4-(4-((1-(2-(2,6-dioxopiperidin-3-yl)-1,3-dioxoisoindol-5-yl)piperidin-4-yl)methyl)piperazin-1-yl)phenyl)amino)-3-(3-(2-oxo-3-phenylimidazolin-1-yl)piperidin-1-yl)-1,2,4-triazin-6-carboxamide], the DC50 is less than 1 nM.

The compound `NC(=O)c1nnc(N2CCCC(N3CCN(c4ccccc4)C3=O)C2)nc1Nc1ccc(C2CCN(C3CCN(c4ccc5c(c4)C(=O)N(C4CCC(=O)NC4=O)C5=O)CC3)CC2)cc1` (centres unmarked) [Compound 096, 5-((4-(1′-(2-(2,6-dioxopiperidin-3-yl)-1,3-dioxoisoindol-5-yl)-[1,4′-bipiperidin]-4-yl)phenyl)amino)-3-(3-(2-oxo-3-phenylimidazolin-1-yl)piperidin-1-yl)-1,2,4-triazin-6-carboxamide] had a 50% degradation concentration (DC50) of less than 1 nM.

In turn, `NC(=O)c1nnc(N2CCCC(N3CCN(c4ccccc4)C3=O)C2)nc1Nc1ccc(N2CCC(N3CCN(CC#Cc4ccc5c(c4)CN(C4CCC(=O)NC4=O)C5=O)CC3)CC2)cc1` (centres unmarked) [Compound 097] showed a DC50 greater than 1 nM.

As for `NC(=O)c1nnc(N2CCCC(N3CCN(c4ccccc4)C3=O)C2)nc1Nc1ccc(C2CCN(CC3CCN(c4cc5c(cc4F)C(=O)N(C4CCC(=O)NC4=O)C5=O)CC3)CC2)cc1` (centres unmarked) [Compound 098, 5-((4-(1-((1-(2-(2,6-dioxopiperidin-3-yl)-6-fluoro-1,3-dioxoisoindol-5-yl)piperidin-4-yl)methyl)piperidin-4-yl)phenyl)amino)-3-(3-(2-oxo-3-phenylimidazolin-1-yl)piperidin-1-yl)-1,2,4-triazin-6-carboxamide], the DC50 was less than 1 nM.

In the case of `NC(=O)c1nnc(N2CCCC(N3CCN(c4ccccc4)C3=O)C2)nc1Nc1ccc(C2CCN(CC3CCN(c4ccc5c(c4)C(=O)N(C4CCC(=O)NC4=O)C5)CC3)CC2)cc1` (centres unmarked) [Compound 099, 5-((4-(1-((1-(2-(2,6-dioxopiperidin-3-yl)-3-oxoisoindol-5-yl)piperidin-4-yl)methyl)piperidin-4-yl)phenyl)amino)-3-(3-(2-oxo-3-phenylimidazolin-1-yl)piperidin-1-yl)-1,2,4-triazin-6-carboxamide], the 50% degradation concentration (DC50) was less than 1 nM.

As for `NC(=O)c1nnc(N2CCCC(N3CCN(c4ccccc4)C3=O)C2)nc1Nc1ccc(C2CCN(CC3CCN(c4ccc5c(c4)CN(C4CCC(=O)NC4=O)C5=O)CC3)CC2)cc1` (centres unmarked) [Compound 100, 5-((4-(1-((1-(2-(2,6-dioxopiperidin-3-yl)-1-oxoisoindol-5-yl)piperidin-4-yl)methyl)piperidin-4-yl)phenyl)amino)-3-(3-(2-oxo-3-phenylimidazolin-1-yl)piperidin-1-yl)-1,2,4-triazin-6-carboxamide], the DC50 is less than 1 nM.

`Cn1c(=O)n(C2CCC(=O)NC2=O)c2ccc(N3CCC(CN4CCC(c5ccc(Nc6nc(N7CCCC(N8CCN(c9ccccc9)C8=O)C7)nnc6C(N)=O)cc5)CC4)CC3)cc21` (centres unmarked) [Compound 101] returned a DC50 of less than 1 nM.

As to `CN1CCN(C2CC3CC2N(c2nnc(C(N)=O)c(Nc4ccc(C5CCN(CC6CCN(c7ccc8c(c7)C(=O)N(C7CCC(=O)NC7=O)C8=O)C6)CC5)cc4)n2)C3)C1=O` (centres unmarked) [Compound 102, 5-((4-(1-((1-(2-(2,6-dioxopiperidin-3-yl)-1,3-dioxoisoindol-5-yl)pyrrolidin-3-yl)methyl)piperidin-4-yl)phenyl)amino)-3-(6-(3-methyl-2-oxoimidazolin-1-yl)-2-azabicyclo[2.2.1]heptan-2-yl)-1,2,4-triazin-6-carboxamide], the DC50 was less than 1 nM.

`CN1CCN(C2CC3CC2N(c2nnc(C(N)=O)c(Nc4ccc(C5CCN(C6CN(c7ccc8c(c7)C(=O)N(C7CCC(=O)NC7=O)C8=O)C6)CC5)cc4)n2)C3)C1=O` (centres unmarked) [Compound 103, 5-((4-(1-(1-(2-(2,6-dioxopiperidin-3-yl)-1,3-dioxoisoindol-5-yl)azetidin-3-yl)piperidin-4-yl)phenyl)amino)-3-(6-(3-methyl-2-oxoimidazolin-1-yl)-2-azabicyclo[2.2.1]heptan-2-yl)-1,2,4-triazin-6-carboxamide] had a DC50 of less than 1 nM.

For the compound `CN1CCN(C2CC3CC2N(c2nnc(C(N)=O)c(Nc4ccc(C5(C)CCN(C6CCN(c7ccc8c(c7)C(=O)N(C7CCC(=O)NC7=O)C8=O)CC6)CC5)cc4)n2)C3)C1=O` (centres unmarked) [Compound 104, 5-((4-(1′-(2-(2,6-dioxopiperidin-3-yl)-1,3-dioxoisoindol-5-yl)-4-methyl-[1,4′-bipiperidin]-4-yl)phenyl)amino)-3-(6-(3-methyl-2-oxoimidazolin-1-yl)-2-azabicyclo[2.2.1]heptan-2-yl)-1,2,4-triazin-6-carboxamide], the DC50 was less than 1 nM.

In the case of `CN1CCN(C2CC3CC2N(c2nnc(C(N)=O)c(Nc4ccc(C5(C)CCN(C6CN(c7ccc8c(c7)C(=O)N(C7CCC(=O)NC7=O)C8=O)C6)CC5)cc4)n2)C3)C1=O` (centres unmarked) [Compound 105, 5-((4-(1-(1-(2-(2,6-dioxopiperidin-3-yl)-1,3-dioxoisoindol-5-yl)azetidin-3-yl)-4-methylpiperidin-4-yl)phenyl)amino)-3-(6-(3-methyl-2-oxoimidazolin-1-yl)-2-azabicyclo[2.2.1]heptan-2-yl)-1,2,4-triazin-6-carboxamide], the DC50 is less than 1 nM.

Compound `CN1CCN(C2CC3CC2N(c2nnc(C(N)=O)c(Nc4ccc5c(c4)CCN(C4CN(c6ccc7c(c6)C(=O)N(C6CCC(=O)NC6=O)C7=O)C4)C5)n2)C3)C1=O` (centres unmarked) [Compound 106, 5-((2-(1-(2-(2,6-dioxopiperidin-3-yl)-1,3-dioxoisoindol-5-yl)azetidine-3-yl)-1,2,3,4-tetrahydroisoquinolin-6-yl)amino)-3-(6-(3-methyl-2-oxoimidazolin-1-yl)-2-azabicyclo[2.2.1]heptan-2-yl)-1,2,4-triazin-6-carboxamide] gave a DC50 of less than 1 nM.

The compound `CN1CCN(C2CC3CC2N(c2nnc(C(N)=O)c(Nc4ccc5c(c4)CCN(CC4CCN(c6ccc7c(c6)C(=O)N(C6CCC(=O)NC6=O)C7=O)CC4)C5)n2)C3)C1=O` (centres unmarked) [Compound 107, 5-((2-((1-(2-(2,6-dioxopiperidin-3-yl)-1,3-dioxoisoindol-5-yl)piperidin-4-yl)methyl)-1,2,3,4-tetrahydroisoquinolin-6-yl)amino)-3-(6-(3-methyl-2-oxoimidazolin-1-yl)-2-azabicyclo[2.2.1]heptan-2-yl)-1,2,4-triazin-6-carboxamide] came in with a DC50 of less than 1 nM.

The DC50 is the concentration giving 50% degradation. Low readings indicate a more potent degrader, high ones a less potent degrader.
